Measurements from PMC6576746, “Rational discovery of dual-indication multi-target PDE/Kinase inhibitor for precision anti-cancer therapy using structural systems pharmacology” (PLoS Computational Biology, 2019).

Key:
Assay in all cases: cells
Design in all cases: species or system panel of human cancer cell lines; Eurofins OncoPanel proliferation; nuclei count by high-content fluorescence imaging, 10-point dose response
[1] = test system: A-704; conditions: Homo sapiens, A704, 72 h, cell count, 3 days
How it was run: (§1)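 Ten half-log concentrations from 100 μM (0.1% DMSO max) applied one day post-seeding, 3-day exposure at 37°C; untreated time-zero plate for GI50. Readout is nuclear cell count by automated fluorescence imaging, giving EC50, IC50, GI50 and 0–10 activity area.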

[2] = test system: REC-1; conditions: Homo sapiens, Rec1, 72 h, cell count, 3 days
How it was run: as §1

[3] = test system: U266B1; conditions: 72 h, cell count, 3 days
How it was run: as §1

[4] = test system: TUR; conditions: 72 h, cell count, 3 days
How it was run: as §1

[5] = test system: SCaBER; conditions: Homo sapiens, SCaBER, 72 h, cell count, 3 days
How it was run: as §1

[6] = test system: SW-13; conditions: Homo sapiens, SW13, 72 h, cell count, 3 days
How it was run: as §1

[7] = test system: HT1376; conditions: Homo sapiens, HT-1376, 72 h, cell count, 3 days
How it was run: as §1

[8] = test system: TCCSUP; conditions: Homo sapiens, TCC-SUP, 72 h, cell count, 3 days
How it was run: as §1

[9] = test system: Colo 201; conditions: Homo sapiens, COLO 201, 72 h, cell count, 3 days
How it was run: as §1

[10] = test system: K562; conditions: Homo sapiens, K562, 72 h, cell count, 3 days
How it was run: as §1

[11] = test system: JEG-3; conditions: Homo sapiens, JEG-3, 72 h, cell count, 3 days
How it was run: as §1

[12] = test system: HT-1080; conditions: Homo sapiens, HT-1080, 72 h, cell count, 3 days
How it was run: as §1

[13] = test system: Hs 229.T; conditions: 72 h, cell count, 3 days
How it was run: as §1

[14] = test system: SK-UT-1; conditions: Homo sapiens, SK-UT-1, 72 h, cell count, 3 days
How it was run: as §1

[15] = 50% of maximum possible response

SMILES: C[C@@H]1CC(=O)NN=C1c1ccc(NN=C(C#N)C#N)cc1 [levosimendan]
- IC50 [1, 15]: > 100 µM
- GI50 ([1]; corrected for time zero): 64.7 µM
- EC50 ([1]; curve inflection point): > 100 µM
- IC50 [2, 15]: 25.2 µM
- GI50 ([2]; corrected for time zero): 9.04 µM
- EC50 ([2]; curve inflection point): 25.2 µM
- IC50 [3, 15]: 95.7 µM
- GI50 ([3]; corrected for time zero): 46.2 µM
- EC50 ([3]; curve inflection point): 95.7 µM
- IC50 [4, 15]: 6.72 µM
- GI50 ([4]; corrected for time zero): 5.98 µM
- EC50 ([4]; curve inflection point): 6.49 µM
- IC50 [5, 15]: 60.4 µM
- GI50 ([5]; corrected for time zero): 56.5 µM
- EC50 ([5]; curve inflection point): 60.4 µM
- IC50 [6, 15]: 6.13 µM
- GI50 ([6]; corrected for time zero): 3.72 µM
- EC50 ([6]; curve inflection point): 6.13 µM
- IC50 [7, 15]: > 100 µM
- GI50 ([7]; corrected for time zero): > 100 µM
- EC50 ([7]; curve inflection point): > 100 µM
- IC50 [8, 15]: > 100 µM
- GI50 ([8]; corrected for time zero): 94.3 µM
- EC50 ([8]; curve inflection point): > 100 µM
- IC50 [9, 15]: 68.3 µM
- GI50 ([9]; corrected for time zero): 53.8 µM
- EC50 ([9]; curve inflection point): 68.3 µM
- IC50 [10, 15]: 44.4 µM
- GI50 ([10]; corrected for time zero): 38.5 µM
- EC50 ([10]; curve inflection point): 44.4 µM
- IC50 [11, 15]: 30.5 µM
- GI50 ([11]; corrected for time zero): 25.6 µM
- EC50 ([11]; curve inflection point): 30.5 µM
- IC50 [12, 15]: 11.7 µM
- GI50 ([12]; corrected for time zero): 10.9 µM
- EC50 ([12]; curve inflection point): 11.7 µM
- IC50 [13, 15]: 100 µM
- GI50 ([13]; corrected for time zero): 60.3 µM
- EC50 ([13]; curve inflection point): 100 µM
- IC50 [14, 15]: 11.8 µM
- GI50 ([14]; corrected for time zero): 9.1 µM
- EC50 ([14]; curve inflection point): 11.8 µM
